From ChEMBL document CHEMBL5230101, “Unique Domain for a Unique Target: Selective Inhibitors of Host Cell DDX3X to Fight Emerging Viruses” (J Med Chem, 2020)
Active and inactive are the calls of the source. The rule behind the calls is not given here.

Tests used:
[1] = molecular target: ATP-dependent RNA helicase DDX3X (Homo sapiens) (UniProt O00571); assay: Inhibition of human recombinant full length DDX3X helicase activity expressed in Escherichia coli using dsRNA as substrate measured after 40 mins by FRET assay
Sequence of ATP-dependent RNA helicase DDX3X (Homo sapiens) (O00571 2-662 limits assumed): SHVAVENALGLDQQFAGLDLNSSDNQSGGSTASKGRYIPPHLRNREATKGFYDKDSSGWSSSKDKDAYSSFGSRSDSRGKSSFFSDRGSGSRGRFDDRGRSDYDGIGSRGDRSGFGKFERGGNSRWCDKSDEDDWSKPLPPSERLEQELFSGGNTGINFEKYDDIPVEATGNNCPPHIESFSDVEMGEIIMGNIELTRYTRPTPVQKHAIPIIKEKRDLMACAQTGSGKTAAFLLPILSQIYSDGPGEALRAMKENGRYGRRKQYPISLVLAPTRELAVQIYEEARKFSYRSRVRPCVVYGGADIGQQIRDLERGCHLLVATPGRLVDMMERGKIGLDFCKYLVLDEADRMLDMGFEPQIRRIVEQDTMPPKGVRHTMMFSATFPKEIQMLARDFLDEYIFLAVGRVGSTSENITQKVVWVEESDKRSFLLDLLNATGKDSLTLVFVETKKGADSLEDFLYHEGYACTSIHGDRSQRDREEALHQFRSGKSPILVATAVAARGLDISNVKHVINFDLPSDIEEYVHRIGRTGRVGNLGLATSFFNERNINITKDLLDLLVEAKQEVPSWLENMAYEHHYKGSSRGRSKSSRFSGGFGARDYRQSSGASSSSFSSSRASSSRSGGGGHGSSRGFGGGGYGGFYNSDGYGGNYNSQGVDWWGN

Homo sapiens [2] = species on record: Homo sapiens; assay: Inhibition of human recombinant full length DDX3X E256A mutant helicase activity using dsRNA as substrate measured after 40 mins by FRET assay
Homo sapiens [3] = species on record: Homo sapiens; assay: Inhibition of human recombinant full length DDX3X R262A mutant helicase activity using dsRNA as substrate measured after 40 mins by FRET assay
[4] = molecular target: T1, ATP-dependent RNA helicase DDX1 (Homo sapiens) (UniProt Q92499); assay: Inhibition of human DDX1 helicase activity
T1 sequence (whole entry): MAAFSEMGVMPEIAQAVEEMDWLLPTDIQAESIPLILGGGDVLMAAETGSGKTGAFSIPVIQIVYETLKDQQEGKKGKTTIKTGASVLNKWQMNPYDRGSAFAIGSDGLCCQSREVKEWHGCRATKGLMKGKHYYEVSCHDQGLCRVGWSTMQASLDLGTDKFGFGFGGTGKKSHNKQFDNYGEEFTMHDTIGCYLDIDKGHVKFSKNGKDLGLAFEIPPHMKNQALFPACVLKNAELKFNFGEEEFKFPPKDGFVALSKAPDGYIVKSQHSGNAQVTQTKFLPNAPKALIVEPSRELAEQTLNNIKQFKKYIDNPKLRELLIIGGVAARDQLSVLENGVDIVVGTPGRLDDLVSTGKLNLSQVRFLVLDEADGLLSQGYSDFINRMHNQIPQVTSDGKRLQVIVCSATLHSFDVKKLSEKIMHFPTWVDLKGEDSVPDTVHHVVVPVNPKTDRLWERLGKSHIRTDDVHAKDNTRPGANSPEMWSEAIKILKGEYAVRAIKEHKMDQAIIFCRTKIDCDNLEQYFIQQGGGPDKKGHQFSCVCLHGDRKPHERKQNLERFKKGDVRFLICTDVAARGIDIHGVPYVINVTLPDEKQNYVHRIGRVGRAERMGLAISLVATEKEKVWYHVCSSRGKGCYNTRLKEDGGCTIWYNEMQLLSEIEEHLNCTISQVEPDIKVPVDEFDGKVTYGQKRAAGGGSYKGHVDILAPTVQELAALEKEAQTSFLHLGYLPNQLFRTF

Arabidopsis thaliana = assay: Inhibition of Arabidopsis thaliana STRS2 helicase activity
Hepacivirus hominis = assay: Inhibition of Hepatitis C virus NSP 3 helicase activity
dengue virus type 2 = assay: Antiviral activity against DENV2 New Guinea C strain infected in human Huh-7 cells measured after 72 hrs by immunodetection assay; assay type: functional, organism-based; conditions: Huh-7, 72 h
West Nile virus = assay: Antiviral activity against WNV infected in human Huh-7 cells preincubated with cells for 1 hr and measured after 4 days by plaque reduction assay; assay type: functional, organism-based
Huh-7 [5] = assay: Cytotoxicity against human Huh-7 cells incubated for 72 hrs by Cell Titer-Glo luminescence assay; assay type: functional
Huh-7 [6] = assay: Cytotoxicity against human Huh-7 cells incubated for 3 days by MTT assay; assay type: functional; conditions: Huh-7, 72 h, time 3 day

CC(N)Cc1cn(Cc2ccccc2)c2ccccc12 (stereo not drawn)
ID50 [1]: inactive

CC1CC(C)CN(S(=O)(=O)c2ccc(N)cc2)C1 (stereo not drawn)
ID50 [1]: inactive

NC[C@@H](O)CN(c1ccccc1)c1ccccc1
ID50 [1]: 0.006 µM
ID50 (Homo sapiens [2]): 0.3 µM
ID50 (Homo sapiens [3]): 0.004 µM
ID50 [4]: 58 µM
ID50 (Arabidopsis thaliana): > 100 µM
ID50 (Hepacivirus hominis): > 100 µM
IC50 (dengue virus type 2): 6.3 µM
IC50 (West Nile virus): 0.88 µM
CC50 (Huh-7 [5]): 79 µM
CC50 (Huh-7 [6]): > 100 µM

NCC(O)CN(c1ccccc1)c1ccccc1 (racemic) [listing 1 of 2 here]
ID50 [1]: 0.002 µM
ID50 (Homo sapiens [2]): 73 µM
ID50 (Homo sapiens [3]): 0.001 µM
ID50 [4]: 18 µM
ID50 (Arabidopsis thaliana): > 100 µM
ID50 (Hepacivirus hominis): > 100 µM

CC(=O)N1c2ccccc2CCc2cc([N+](=O)[O-])ccc21
ID50 [1]: inactive

NC[C@H](O)CN(c1ccccc1)c1ccccc1
ID50 [1]: 0.007 µM
IC50 (dengue virus type 2): 12.6 µM
IC50 (West Nile virus): 0.9 µM
CC50 (Huh-7 [5]): 120 µM
CC50 (Huh-7 [6]): > 100 µM

CCOC(=O)Nc1ccc2c(c1)N(C(=O)CCN(CC)CC)c1ccccc1CC2
ID50 [1]: inactive

OC(C#CCN1CCCCC1)(c1ccccc1)c1ccccc1
ID50 [1]: inactive

COc1ccc(CN)cc1Cn1cccn1
ID50 [1]: inactive

NCC(O)CN(c1ccccc1)c1ccccc1 (stereo not drawn)
ID50 [1]: 0.7 µM

NCC(O)CN(c1ccccc1)c1ccccc1 (racemic) [listing 2 of 2 here]
IC50 (dengue virus type 2): 7.9 µM
IC50 (West Nile virus): 2.3 µM
CC50 (Huh-7 [5]): 100 µM
CC50 (Huh-7 [6]): > 100 µM

CNC(=O)N1c2ccccc2CCc2ccccc21
ID50 [1]: inactive

Nc1ccc(Nc2nc3ccccc3[nH]2)cc1
ID50 [1]: inactive

Nc1ccc(S(=O)(=O)c2ccccc2)cc1
ID50 [1]: 200 µM

NC(=O)c1ncn([C@@H]2O[C@H](CO)[C@@H](O)[C@H]2O)n1 [RIBAVIRIN]
IC50 (West Nile virus): 91.5 µM
CC50 (Huh-7 [5]): > 100 µM
CC50 (Huh-7 [6]): > 100 µM
